Experimental data reported in patent US5891434A, “Monoclonal antibodies to the APO-1 antigen” (Centocor, Inc., priority 1995, dated 1999).

Tests used:
[1] = test system: membrane blebbing induced by anti-APO-1; test: kinetics of membrane blebbing induced by anti-APO-1, in the presence of chelators; format: cell-based; details: 10 mM
Excerpt: The CCRF-CEM.S2 subclone was obtained by cloning cells under limiting dilution conditions from the CCRF-CEM T cell line at one cell per well in 96-well microtiter plates.

[2] = test system: DNA fragmentation induced by anti-APO-1; test: endonuclease-mediated DNA fragmentation induced by anti-APO-1, in the presence of Ca2+ channel blockers; format: cell-based; details: Ca2+ channel blocker at 50 μM
Description: CCRF-CEM.S2 cells (10^6 per milliliter) were incubated with MAb (1 μg/ml) in culture medium at 37° C. At various times, aliquots of 10^6 cells were removed and DNA was prepared.
SKW6.4 cells were either incubated with the isotype-matched control MAb FII20, FII23 (nonbinding MAb), or anti-APO-1 in microcultures for 24 hours before labeling with [^3 H]-thymidine for a further 4 hours. The data represent the mean of duplicate cultures with a variation of less than 5%. The cells were cultured in RPMI 1640 medium (Gibco, Grand Island, N.Y.), supplemented with 2 mM L-glutamine, streptomycin (100 μg/ml), penicillin (100 U/ml), 20 mM Hepes buffer pH 7.3, and 10% heat-inactivatedfetal bovine serum (Conco Lab-Division, Wiesbaden, FRG). For microcultures 1×10^4 cells per well were cultured in duplicates in flat bottom 96-well microtiter plates (Tecnomara, Fernwald, FRG) (200 μfinal volume per well). After 24 hours, the cells were labeled with 0.5 μCi of [^3 H]-thymidine (Amersham, Braunschweig, FRG)) for 4 hours. Before harvesting, the microcultures were examined by microscopic inspection. For DNA fragmentation 1×10^6 cells were washed with cold phosphate-buffered saline and disrupted with NTE buffer, pH 8 (100 mM NaCl, 10 mM Tris-HCl, 1 mM EDTA) containing 1% SDS and proteinase K (0.2 mg/ml). […]

Compound | influence on kinetics of membrane blebbing induced by anti-APO-1 (within 30 minutes) [1] | inhibition of endonuclease-mediated DNA fragmentation induced by anti-APO-1 [2]
O=C(O)CN(CCN(CC(=O)O)CC(=O)O)CC(=O)O [EDTA] | not influenced | –
O=C(O)CN(CCOCCOCCN(CC(=O)O)CC(=O)O)CC(=O)O [EGTA] | not influenced | –
COC(=O)C1=C(C)NC(C)=C(C(=O)OC)C1c1ccccc1[N+](=O)[O-] [Nifedipin] | – | not inhibited
Furamicin | – | not inhibited
